Data published in patent publication US20230398130A1, “METHODS AND COMPOSITIONS FOR DIFFERENTIATING STEM CELLS” (Massachusetts Institute of Technology, priority 2020, published 2023).

Legend:
ISC-enriched organoids [1] = assay: Primary screen, 384-well 2.5-D organoid differentiation (ENR+CD, 6 days, Target Selective Inhibitor Library, vs whole-plate median): ATP (CellTiter-Glo 3D, CTG); details: for Dose.FC.CTG / Z.CTG (standard z score) / Dose.FC.CTG (log 2 fold change): primary screen; for Dose.FC.CTG: FC vs plate median; for Z.CTG: standard z score of FC; for Dose.FC.CTG (log 2 fold change): vs plate median
ISC-enriched organoids [2] = assay: Primary screen, 384-well 2.5-D organoid differentiation (ENR+CD, 6 days): basal lysozyme secretion (LYZ.NS); type: cell-based, murine; details: for Dose.FC.LYZ.NS / Z.LYZ.NS (standard z score) / Dose.FC.LYZ.NS (log 2 fold change): primary screen; for Dose.FC.LYZ.NS: FC vs plate median; for Z.LYZ.NS: standard z score of FC; for Dose.FC.LYZ.NS (log 2 fold change): vs plate median
From the text: (§1) High-throughput screening.

ISC-enriched organoids [3] = assay: Primary screen, 384-well 2.5-D organoid differentiation (ENR+CD, 6 days): carbachol-induced lysozyme secretion (LYZ.S); type: cell-based, murine; details: primary screen; for Dose.FC.LYZ.S: FC vs plate median; for Dose.FC.LYZ.S (log 2 fold change): vs plate median
From the text: as §1

SMILES | Dose.FC.CTG (ISC-enriched organoids [1]; Dose 0.08 uM) | Z.CTG (ISC-enriched organoids [1]; Dose 0.08 uM) | Dose.FC.LYZ.NS (ISC-enriched organoids [2]; Dose 0.08 uM) | Z.LYZ.NS (ISC-enriched organoids [2]; Dose 0.08 uM) | Dose.FC.LYZ.S (ISC-enriched organoids [3]; Dose 0.08 uM) | Z.CTG (standard z score) (ISC-enriched organoids [1]; Dose 0.40 uM) | Dose.FC.CTG (log 2 fold change) (ISC-enriched organoids [1]; Dose 0.40 uM) | Z.CTG (standard z score) (ISC-enriched organoids [1]; Dose 2.00 uM) | Dose.FC.CTG (log 2 fold change) (ISC-enriched organoids [1]; Dose 2.00 uM) | Z.CTG (standard z score) (ISC-enriched organoids [1]; Dose 10.00 uM) | Dose.FC.CTG (log 2 fold change) (ISC-enriched organoids [1]; Dose 10.00 uM) | Z.LYZ.NS (standard z score) (ISC-enriched organoids [2]; Dose 0.40 uM) | Dose.FC.LYZ.NS (log 2 fold change) (ISC-enriched organoids [2]; Dose 0.40 uM) | Z.LYZ.NS (standard z score) (ISC-enriched organoids [2]; Dose 2.00 uM) | Dose.FC.LYZ.NS (log 2 fold change) (ISC-enriched organoids [2]; Dose 2.00 uM) | Z.LYZ.NS (standard z score) (ISC-enriched organoids [2]; Dose 10.00 uM) | Dose.FC.LYZ.NS (log 2 fold change) (ISC-enriched organoids [2]; Dose 10.00 uM) | Dose.FC.LYZ.S (log 2 fold change) (ISC-enriched organoids [3]; Dose 0.40 uM) | Dose.FC.LYZ.S (log 2 fold change) (ISC-enriched organoids [3]; Dose 2.00 uM) | Dose.FC.LYZ.S (log 2 fold change) (ISC-enriched organoids [3]; Dose 10.00 uM) | other results
CC(C)(C)n1nc(-c2ccc(Cl)cc2)c2c(N)ncnc21 [PP2] | −0.693 log 2 fold change | −1.655 | 0.033 log 2 fold change | 0.285 | 0.058 log 2 fold change | – | – | – | – | – | – | – | – | – | – | – | – | – | – | – | Dose.FC.CTG (ISC-enriched organoids [1]; Dose 0.40 uM): 0.130 log 2 fold change; Z.CTG (ISC-enriched organoids [1]; Dose 0.40 uM): 0.312; Dose.FC.CTG (ISC-enriched organoids [1]; Dose 2.00 uM): −0.382 log 2 fold change; Z.CTG (ISC-enriched organoids [1]; Dose 2.00 uM): −0.913; Dose.FC.CTG (ISC-enriched organoids [1]; Dose 10.00 uM): −0.246 log 2 fold change; Z.CTG (ISC-enriched organoids [1]; Dose 10.00 uM): −0.587; Dose.FC.LYZ.NS (ISC-enriched organoids [2]; Dose 0.40 uM): 0.012 log 2 fold change; Z.LYZ.NS (ISC-enriched organoids [2]; Dose 0.40 uM): 0.104; Dose.FC.LYZ.NS (ISC-enriched organoids [2]; Dose 2.00 uM): 0.270 log 2 fold change; Z.LYZ.NS (ISC-enriched organoids [2]; Dose 2.00 uM): 2.354; Dose.FC.LYZ.NS (ISC-enriched organoids [2]; Dose 10.00 uM): −0.027 log 2 fold change; Z.LYZ.NS (ISC-enriched organoids [2]; Dose 10.00 uM): −0.235; Dose.FC.LYZ.S (ISC-enriched organoids [3]; Dose 0.40 uM): 0.145 log 2 fold change; Dose.FC.LYZ.S (ISC-enriched organoids [3]; Dose 2.00 uM): 0.113 log 2 fold change; Dose.FC.LYZ.S (ISC-enriched organoids [3]; Dose 10.00 uM): 0.027 log 2 fold change
N#CSc1cc(SC#N)c(N)nc1N [PR-619] | 0.054 log 2 fold change | 0.130 | 0.100 log 2 fold change | 0.872 | 0.122 log 2 fold change | 0.266 | 0.111 | 0.053 | 0.022 | −0.764 | −0.320 | 0.448 | 0.051 | 0.495 | 0.057 | −1.687 | −0.194 | 0.047 | 0.081 | −0.193 | –
Cl.NC(=O)c1cnc(N[C@@H]2CCCC[C@@H]2N)nc1Nc1cccc(-n2nccn2)c1 [PRT062607 (P505-15, BIIB057) HCl] | – | – | – | – | – | 0.191 | 0.080 | −0.179 | −0.075 | −0.788 | −0.330 | 0.194 | 0.022 | −0.280 | −0.032 | −1.837 | −0.211 | 0.122 | −0.123 | −0.298 | Z.CTG (standard z score) (ISC-enriched organoids [1]; Dose 0.08 uM): −0.219; Dose.FC.CTG (log 2 fold change) (ISC-enriched organoids [1]; Dose 0.08 uM): −0.092; Z.LYZ.NS (standard z score) (ISC-enriched organoids [2]; Dose 0.08 uM): 0.037; Dose.FC.LYZ.NS (log 2 fold change) (ISC-enriched organoids [2]; Dose 0.08 uM): 0.004; Dose.FC.LYZ.S (log 2 fold change) (ISC-enriched organoids [3]; Dose 0.08 uM): −0.033
COc1cc(Br)c(Nc2nc(-c3c(C)nc4ncccn34)cs2)c(Br)c1 [PTC-209] | – | – | – | – | – | −0.495 | −0.207 | −3.397 | −1.422 | −3.708 | −1.553 | −0.509 | −0.058 | −1.753 | −0.201 | −1.975 | −0.227 | 0.045 | −0.289 | −0.300 | Z.CTG (standard z score) (ISC-enriched organoids [1]; Dose 0.08 uM): −0.259; Dose.FC.CTG (log 2 fold change) (ISC-enriched organoids [1]; Dose 0.08 uM): −0.108; Z.LYZ.NS (standard z score) (ISC-enriched organoids [2]; Dose 0.08 uM): 0.294; Dose.FC.LYZ.NS (log 2 fold change) (ISC-enriched organoids [2]; Dose 0.08 uM): 0.034; Dose.FC.LYZ.S (log 2 fold change) (ISC-enriched organoids [3]; Dose 0.08 uM): 0.007
